{"source": "patent US7648959B2", "about": "“Methods and compositions for the treatment of diseases of the eye” (Merck Patent GmbH, priority 2000, dated 2010)", "tested_on": "bFGF-Stimulated Corneal Angiogenesis", "assay": "rabbit corneal micropocket model, paralimbal intrascleral injection", "assay_type": "in vivo", "conditions": "for Area of neovascularisation, MEAN / Area of neovascularisation (individual eye): single (Day 0) intrascleral injection, 100 μl, 2.0 mg/ml in PBS; for Area of neovascularisation, MEAN: mean of 12 eyes; for Area of neovascularisation (individual eye): one value per rabbit eye (R/L); for neovascularisation inhibited compared to the animal group receiving PBS only: single intrascleral injection 100 μl, 2.0 mg/ml, p<0.01", "experimental": "(1996). In this model angiogenesis is stimulated by implantation of Hydron pellets containing an angiogenesis stimulating cytokine like, for example, fibroblast growth factor (FGF) or vascular endothelial growth factor (VEGF) into the cornea. After implantation the active compound to be tested is administered by paralimbal intrascleral injection. Effect on neovascularisation is measured after predetermined time intervals by visual examination using a microscope, photographing and computer-assisted quantification of photographs.\nThe effect of intrascleral application of an αvβ3 and/or αvβ5 inhibitor was examined in rabbit corneal micropocket model as described by Shaffer R. W. (see above). As an example for an αvβ3 and/or αvβ5 inhibitor (2S)-2-(2,2-dimethylpropyloxycarboxamido)-3-{3,4-dihydro-2-[N-(2-imidazolyl)carbamoylethyl]-(2S)-2H-1,4-benzoxazin-3-on-6-yl}propionic acid was used in the experiment. For induction of angiogenesis Hydron pellets containing basic fibroblast growth factor (bFGF) were used. Preparation of bFGF containing implants was performed by casting Hydron [poly(hydroxyethyl)methacrylate] in specially prepared Teflon pegs that have a 5 mm core drilled into their surfaces. Approximately 12 μl of casting material was placed into each peg and polymerized overnight in a sterile hood, then sterilized by ultraviolet irradiation.\nThe experiment consisted of 12 animals; in each eye of the animals one individual pellet was implanted into a surgically created “pocket” in the mid stroma of the rabbit cornea. The surgical procedure was done under sterile technique using a Wild model M691 operating microscope equipped with a beamsplitter and camera for photographically recording individual corneas. A 69 Beaver blade was used to create a 3 mm by 5 mm “pocket” to a depth of half the corneal thickness. The stroma was dissected peripherally using an spatula and the pellet implanted with its peripheral margin 2 mm from limbus. Immediately after implantation of bFGF-containing Hydron pellets 6 of the 12 animals received in each eye 100 μl of a drug solution consisting of 2.0 mg/ml (2S)-2-(2,2-dimethylpropyloxycarboxamido)-3-3,4-dihydro-2-[N-(2-imidazolyl)carbamoylethyl]-(2S)-2H-1,4-benzoxazin-3-on-6-yl}propionic acid solubilized in phosphate buffered saline (PBS) by paralimbal intrascleral injection. For comparison the same procedure was performed in the other 6 animals using PBS only. Following implantation the eyes were photographed and the area of neovascularisation measured after predetermined intervals.", "note": "Values joined by “and” are separate entries in the source; they are usually repeats but may differ in a detail not shown here. Equal values may be shown once."}
{"molecule": "CC(C)(C)COC(=O)N[C@@H](Cc1ccc2c(c1)NC(=O)[C@H](CCC(=O)Nc1ncc[nH]1)O2)C(=O)O", "note": "[(2S)-2-(2,2-dimethylpropyloxycarboxamido)-3-{3,4-dihydro-2-[N-(2-imidazolyl)carbamoylethyl]-(2S)-2H-1,4-benzoxazin-3-on-6-yl}propionic acid]", "values": [{"measurement": "Area of neovascularisation, MEAN", "setting": "5 Day Post-Implantation", "result": 8.39, "unit": "mm^2"}, {"measurement": "Area of neovascularisation (individual eye)", "setting": "5 Day Post-Implantation", "result": "3.47 mm^2 and 26.79 mm^2 and 14.76 mm^2 and 7.70 mm^2 and 1.00 mm^2 and 0.88 mm^2 and 8.19 mm^2 and 2.26 mm^2 and 0.0 mm^2 and 7.31 mm^2 and 15.85 mm^2 and 12.45 mm^2"}, {"measurement": "Area of neovascularisation, MEAN", "setting": "7 Day Post-Implantation", "result": 10.32, "unit": "mm^2"}, {"measurement": "Area of neovascularisation (individual eye)", "setting": "7 Day Post-Implantation", "result": "6.69 mm^2 and 27.96 mm^2 and 15.58 mm^2 and 11.32 mm^2 and 2.09 mm^2 and 1.91 mm^2 and 11.93 mm^2 and 3.51 mm^2 and 0.0 mm^2 and 11.56 mm^2 and 16.90 mm^2 and 14.40 mm^2"}, {"measurement": "neovascularisation inhibited compared to the animal group receiving PBS only", "setting": "5 days post implantation", "result": 56.5, "unit": "%"}, {"measurement": "neovascularisation inhibited compared to the animal group receiving PBS only", "setting": "7 days post implantation", "result": 52.3, "unit": "%"}]}
